Measurements taken from patent publication US10131664B2 (Celgene Quanticel Research, Inc., priority 2013, dated 2018).

Columns and labels:
full-length human LSD1 = full-length human LSD1 (Homo sapiens (Human), UniProt O60341); assay: In vitro enzyme inhibition assay LSD-1 (TR-FRET); assay type: biochemical; conditions: TR-FRET, 0.1 nM LSD1, 50 nM H3K4me1-biotin peptide, 2 μM FAD, pH7.3; read-out: LSD1 IC50
Experimental: This assay determines the ability of a test compound to inhibit LSD1 demethylase activity.
The enzymatic assay of LSD1 activity is based on Time Resolved-Fluorescence Resonance Energy Transfer (TR-FRET) detection.
The ability of the compounds disclosed herein to inhibit LSD1 activity was quantified and the respective IC50 value was determined. Table 5 provides the IC50 values of various substituted heterocyclic compounds disclosed herein.

THP-1 (AML) cells = assay: LSD1 CD11b cellular assay (flow cytometry); assay type: cell-based; conditions: Homo sapiens, 96 h; CD11b expression in THP-1 (AML) cells, flow cytometry, 4 days incubation; read-out: Cellular IC50
Experimental: To analyze LSD1 inhibitor efficacy in cells, a CD11b flow cytometry assay was performed. LSD1 inhibition induces CD11b expression in THP-1 (AML) cells which can be measured by flow cytometry. […] LSD1 test compounds were serially diluted in DMSO. The dilutions were added to each well accordingly to a final concentration of 0.2% DMSO. The cells were incubated at 37° C. in 5% CO2 for 4 days. 250 μL of each well was transferred to a well in a 96 well round bottom plate. The plate was centrifuged at 1200 rpm at 4 degrees Celsius in a Beckman Coulter Alegra 6KR centrifuge for 5 min. The media was removed leaving the cells at the bottom of the wells. The cells were washed in 100 μL cold HBSS (Hank's Balanced Salt Solution) plus 2% BSA (Bovine Serum Albumin) solution and centrifuged at 1200 rpm at 4° C. for 5 min. The wash was removed. […] The cells were centrifuged and washed two times in 100 μl HBSS plus 2% BSA. After the final spin the cells were resuspended in 100 μL HBSS plus 2% BSA containing 1 μg/mL DAPI (4′,6-diamidino-2-phenylindole). The cells were then analyzed by flow cytometry in a BD FACSAria machine. Cells were analyzed for CD11b expression. The percent of CD11b expressing cells for each inhibitor concentration was used to determine an IC50 curve for each compound analyzed.

| IC50 (full-length human LSD1) [nM] | IC50 (THP-1 (AML) cells) [nM] | Compound |
| --- | --- | --- |
| < 100 | 100 to 1000 | N#Cc1ccc(-n2nc(C(=O)N3CCC[C@@H](N)C3)cc2OCc2cccnc2)cc1 [Example 57, 4-{3-[((3R)-3-Aminopiperidyl)carbonyl]-5-(3-pyridylmethoxy)pyrazolyl}benzenecarbonitrile] |
| < 100 | 1000 to 10000 | N#Cc1ccc(-n2nc(C(=O)N3CCC[C@@H](N)C3)cc2OCc2ccncc2)cc1 [Example 58, 4-{3-[((3R)-3-aminopiperidyl)carbonyl]-5-(4-pyridylmethoxy)pyrazolyl}benzenecarbonitrile] |
| < 100 | < 100 | Cn1cc2cc(-c3cnc(N4CCC(N)CC4)nc3-c3ccc(C#N)c(F)c3)ccc2n1 [Example 59, 4-[2-(4-aminopiperidin-1-yl)-5-(2-methylindazol-5-yl)pyrimidin-4-yl]-2-fluorobenzonitrile] |
| < 100 | < 100 | N#Cc1ccc(-c2nc(N3CCC(N)CC3)ncc2-c2cnn(CC(F)(F)F)c2)cc1 [Example 61, 4-[2-(4-aminopiperidin-1-yl)-5-[1-(2,2,2-trifluoroethyl)pyrazol-4-yl]pyrimidin-4-yl]benzonitrile] |
| < 100 | < 100 | N#Cc1ccc(-c2nc(N3CCC4(CCNC4)CC3)ncc2-c2cnn(CC(F)(F)F)c2)cc1 [Example 62, 4-[2-(2,8-diazaspiro[4.5]decan-8-yl)-5-[1-(2,2,2-trifluoroethyl)pyrazol-4-yl]pyrimidin-4-yl]benzonitrile] |
| < 100 | 100 to 1000 | N#Cc1ccc(-c2nc(N3CCC4NCCC4C3)ncc2-c2cnn(CC(F)(F)F)c2)cc1 (stereo not shown) [Example 63, 4-[2-{1,2,3,3a,4,6,7,7a-octahydropyrrolo[3,2-c]pyridin-5-yl)-5-[1-(2,2,2-trifluoroethyl)pyrazol-4-yl]pyrimidin-4-yl]benzonitrile] |
| < 100 | < 100 | Cn1ncc2cc(-c3cnc(N4CCC(N)CC4)nc3-c3ccc(C#N)cc3)cnc21 [Example 64, 4-[2-(4-aminopiperidin-1-yl)-5-(1-methylpyrazolo[3,4-b]pyridin-5-yl)pyrimidin-4-yl]benzonitrile] |
| < 100 | < 100 | Cn1ncc2cc(-c3cnc(N4CCC5CNCC5CC4)nc3-c3ccc(C#N)cc3)cnc21 (stereo not shown) [Example 65, 4-[2-(2,3,3a,4,5,7,8,8a-octahydro-1H-pyrrolo[3,4-d]azepin-6-yl)-5-(1-methylpyrazolo[3,4-b]pyridin-5-yl)pyrimidin-4-yl]benzonitrile] |
| < 100 | < 100 | Cn1cnc2cc(-c3cnc(N4CCC(N)CC4)nc3-c3ccc(C#N)cc3)cnc21 [Example 66, 4-[2-(4-aminopiperidin-1-yl)-5-(3-methylimidazo[4,5-b]pyridin-6-yl)pyrimidin-4-yl]benzonitrile] |
| < 100 | 100 to 1000 | Cn1ncc2nc(-c3cnc(N4CCC(N)CC4)nc3-c3ccc(C#N)cc3)ccc21 [Example 67, 4-[2-(4-aminopiperidin-1-yl)-5-(1-methylpyrazolo[4,3-b]pyridin-5-yl)pyrimidin-4-yl]benzonitrile] |
| < 100 | 100 to 1000 | Cn1ncc2cc(-c3cnc(N4CCC(N)CC4)nc3-c3ccc(C#N)cc3)ncc21 [Example 69, 4-[2-(4-aminopiperidin-1-yl)-5-(1-methylpyrazolo[3,4-c]pyridin-5-yl)pyrimidin-4-yl]benzonitrile] |
| < 100 | < 100 | N#Cc1ccc(-c2nc(N3CCC(N)CC3)ncc2C#CC2(O)CCCC2)cc1 [Example 70, 4-{2-(4-aminopiperidin-1-yl)-5-[2-(1-hydroxycyclopentyl)ethynyl]pyrimidin-4-yl]benzonitrile] |
| < 100 | 100 to 1000 | N#Cc1ccc(-c2nc(N3CCC(N)CC3)ncc2-c2cnn(C3CCOC3)c2)cc1 (stereo not shown) [Example 71, 4-[2-(4-aminopiperidin-1-yl)-5-[1-(oxolan-3-yl)pyrazol-4-yl]pyrimidin-4-yl]benzonitrile] |
| < 100 | < 100 | Cn1nnc2cc(-c3cnc(N4CCC(N)CC4)nc3-c3ccc(C#N)cc3)ccc21 [Example 72, 4-[2-(4-aminopiperidin-1-yl)-5-(1-methylbenzotriazol-5-yl)pyrimidin-4-yl]benzonitrile] |
| < 100 | 100 to 1000 | Cn1cc2cc(-c3cnc(N4CCC(N)CC4)nc3-c3ccc(C#N)cc3)ncc2n1 [Example 73, 4-[2-(4-aminopiperidin-1-yl)-5-(2-methylpyrazolo[3,4-c]pyridin-5-yl)pyrimidin-4-yl]benzonitrile] |
| < 100 | 100 to 1000 | Cn1cc2ncc(-c3cnc(N4CCC(N)CC4)nc3-c3ccc(C#N)cc3)cc2n1 [Example 76, 4-[2-(4-aminopiperidin-1-yl)-5-(2-methylpyrazolo[4,3-b]pyridin-6-yl)pyrimidin-4-yl]benzonitrile] |
| < 100 | 100 to 1000 | Cn1ccc2nc(-c3cnc(N4CCC(N)CC4)nc3-c3ccc(C#N)cc3)ccc21 [Example 77, 4-[2-(4-aminopiperidin-1-yl)-5-(1-methylpyrrolo[3,2-b]pyridin-5-yl)pyrimidin-4-yl]benzonitrile] |
| < 100 | 100 to 1000 | N#Cc1ccc(-c2nc(N3CCC(N)CC3)ncc2-c2cnn(CC3CCOC3)c2)cc1 (stereo not shown) [Example 78, 4-[2-(4-aminopiperidin-1-yl)-5-[1-(oxolan-3-ylmethyl)pyrazol-4-yl]pyrimidin-4-yl]benzonitrile] |
| < 100 | < 100 | N#Cc1ccc(-c2nc(N3CCC(N)CC3)ncc2-c2ccc3c(c2)ncn3C(F)F)cc1 [Example 79, 4-[2-(4-aminopiperidin-1-yl)-5-[1-(difluoromethyl)benzimidazol-5-yl]pyrimidin-4-yl]benzonitrile] |
| < 100 | < 100 | N#Cc1ccc(-c2nc(N3CCC(N)CC3)ncc2-c2cnn(CC(F)(F)F)c2)cc1F [Example 80, 4-[2-(4-aminopiperidin-1-yl)-5-[1-(2,2,2-trifluoroethyl)pyrazol-4-yl]pyrimidin-4-yl]-2-fluorobenzonitrile] |
| < 100 | < 100 | COc1ccc(-c2cnc(N3CCC(N)CC3)nc2-c2ccc(C#N)cc2)cc1 [Example 83, 4-[2-(4-aminopiperidin-1-yl)-5-(4-methoxyphenyl)pyrimidin-4-yl]benzonitrile] |
| < 100 | < 100 | COc1ccc(-c2cnc(N3CCC(N)CC3)nc2-c2ccc(C#N)cc2)cc1F [Example 84, 4-[2-(4-aminopiperidin-1-yl)-5-(3-fluoro-4-methoxyphenyl)pyrimidin-4-yl]benzonitrile] |
| < 100 | 100 to 1000 | Cn1cc2cc(-c3cnc(N4CCC(N)CC4)nc3-c3ccc(C#N)cc3)cnc2n1 [Example 85, 4-[2-(4-aminopiperidin-1-yl)-5-(2-methylpyrazolo[3,4-b]pyridin-5-yl)pyrimidin-4-yl]benzonitrile] |
| < 100 | < 100 | Cn1cnc2cc(-c3cnc(N4CCC(N)CC4)nc3-c3ccc(C#N)c(F)c3)ccc21 [Example 87, 4-[2-(4-aminopiperidin-1-yl)-5-(1-methylbenzimidazol-5-yl)pyrimidin-4-yl]-2-fluorobenzonitrile] |
| < 100 | < 100 | CNC1CCN(c2ncc(-c3cnn(CC(F)(F)F)c3)c(-c3ccc(C#N)c(F)c3)n2)CC1 [Example 89, 2-fluoro-4-[2-[4-(methylamino)piperidin-1-yl]-5-[1-(2,2,2-trifluoroethyl)pyrazol-4-yl]pyrimidin-4-yl]benzonitrile] |
| < 100 | 100 to 1000 | N#Cc1ccc(-c2nc(N3CCC(N)CC3)ncc2-c2ccc3nc[nH]c3c2)cc1 [Example 91, 4-[2-(4-aminopiperidin-1-yl)-5-(3H-benzimidazol-5-yl)pyrimidin-4-yl]benzonitrile] |
| < 100 | < 100 | Cc1c2cc(-c3cnc(N4CCC(N)CC4)nc3-c3ccc(C#N)c(F)c3)ccc2nn1C [Example 92, 4-[2-(4-aminopiperidin-1-yl)-5-(2,3-dimethylindazol-5-yl)pyrimidin-4-yl]-2-fluorobenzonitrile] |
| < 100 | < 100 | Cc1nn(C)c2ccc(-c3cnc(N4CCC(N)CC4)nc3-c3ccc(C#N)c(F)c3)cc12 [Example 93, 4-[2-(4-aminopiperidin-1-yl)-5-(1,3-dimethylindazol-5-yl)pyrmidin-4-yl]-2-fluorobenzonitrile] |
| < 100 | < 100 | N#Cc1ccc(-c2nc(N3CCC(N)CC3)ncc2C#CC2(O)CCOC2)cc1F (stereo not shown) [Example 94, 4-[2-(4-aminopiperidin-1-yl)-5-[2-(3-hydroxyoxolan-3-yl)ethynyl]pyrimidin-4-yl]-2-fluorobenzonitrile] |
